Experimental data published in US20250339391A1, “METHODS FOR EFFECTIVE MANAGEMENT OF PAIN” (South Rampart Pharma, Inc., priority 2024, published 2025).

Experiment: LC-MS/MS detection of D10-SRP-001 in rat brain (PAG)
Format: in vivo
Conditions: 30 min after IP injection
Protocol: Deuterated compound D10-SRP-001 was synthesized by Olon Ricerca Bioscience (Concord, OH), and purity was determined to be >99.9% by HPLC. This was used as pure analytical standard for detection of SRP-001 using an LC-MS/MS method. Similarly, pure analytical standard of AM404 (10 ng/mL) obtained from Cayman Chemical (Ann Arbor, MI) was used to characterize the full fragmentation pattern of AM404. […] Thirty min post-injection, the animals were sacrificed (same as in the CFA/von Frey model), their brains harvested, and the midbrain periaqueductal gray (PAG) region excised. SRP-001 or AM404 were extracted from the PAG using a liquid-liquid extraction method using 1:1 MeOH:H2O for LC-MS/MS and were loaded onto a liquid chromatography-tandem mass spectrophotometer for analysis. The mass spectrophotometer was operated in multiple reaction monitoring (MRM) mode using positive ion electrospray. D10-SRP-001 was detected by monitoring the m/z transition 416→186. AM404 was detected by monitoring the m/z transition 396→287.

[2H]C([2H])([2H])C([2H])([2H])N(C(=O)c1ccccc1S(=O)(=O)NCC(=O)Nc1ccc(O)cc1)C([2H])([2H])C([2H])([2H])[2H] [D10-SRP-001]
detection in the brain: detected in the brain
